These results are taken from ChEMBL document CHEMBL3046624, “Synthesis, single crystal X-ray studies and antimicrobial activities of novel Indole barbiturates” (Med Chem Res, 2012).

Activity calls are given as the source filed them. No cut-off for these calls is given here.

Holding throughout (assay type): functional, organism-based
Assay [1] concerns Bacillus subtilis. Put plainly: Growth inhibition of Bacillus subtilis at 300 ug/ml by cup plate method.
For assay [2], the system named is Pseudomonas aeruginosa. Put plainly: Growth inhibition of Pseudomonas aeruginosa at 300 ug/ml by cup-plate method.
Assay [3] deals with Pseudomonas aeruginosa. Nature of the assay: Growth inhibition of Pseudomonas aeruginosa at 200 ug/ml by cup-plate method.
In assay [4] the test system is Staphylococcus aureus. Put plainly: Growth inhibition of Staphylococcus aureus at 300 ug/ml by cup-plate method.
The test system of assay [5] is Candida albicans. Put plainly: Growth inhibition of Candida albicans at 300 ug/ml by cup-plate method.
Assay [6] concerns Proteus vulgaris. Nature of the assay: Growth inhibition of Proteus vulgaris at 200 ug/ml by cup-plate method.
Assay [7] relates to Saccharomyces cerevisiae. Put plainly: Growth inhibition of Saccharomyces cerevisiae at 100 ug/ml by cup-plate method.
Assay [8] deals with Saccharomyces cerevisiae. Nature of the assay: Growth inhibition of Saccharomyces cerevisiae at 300 ug/ml by cup-plate method.
Assay [9] concerns Proteus vulgaris. Nature of the assay: Growth inhibition of Proteus vulgaris at 100 ug/ml by cup-plate method.
Assay [10] relates to Pseudomonas aeruginosa. Put plainly: Growth inhibition of Pseudomonas aeruginosa at 100 ug/ml by cup-plate method.
The test system of assay [11] is Proteus vulgaris. Nature of the assay: Growth inhibition of Proteus vulgaris at 300 ug/ml by cup-plate method.
Assay [12] concerns Escherichia coli. Nature of the assay: Growth inhibition of Escherichia coli at 300 ug/ml by cup-plate method.
Assay [13] has as its system Bacillus subtilis. Nature of the assay: Growth inhibition of Bacillus subtilis at 100 ug/ml by cup plate method.
Assay [14] relates to Saccharomyces cerevisiae. Put plainly: Growth inhibition of Saccharomyces cerevisiae at 200 ug/ml by cup-plate method.
In assay [15] the test system is Bacillus subtilis. Nature of the assay: Growth inhibition of Bacillus subtilis at 200 ug/ml by cup plate method.
Assay [16] has as its system Candida albicans. Nature of the assay: Growth inhibition of Candida albicans at 100 ug/ml by cup-plate method.
The subject of assay [17] is Staphylococcus aureus. Put plainly: Growth inhibition of Staphylococcus aureus at 200 ug/ml by cup-plate method.
Assay [18] concerns Escherichia coli. Nature of the assay: Growth inhibition of Escherichia coli at 100 ug/ml by cup-plate method.
In assay [19] the test system is Staphylococcus aureus. Put plainly: Growth inhibition of Staphylococcus aureus at 100 ug/ml by cup-plate method.
Assay [20] has as its system Candida albicans. Nature of the assay: Growth inhibition of Candida albicans at 200 ug/ml by cup-plate method.
The subject of assay [21] is Escherichia coli. Put plainly: Growth inhibition of Escherichia coli at 200 ug/ml by cup-plate method.

As to `O=C1NC(=O)C(=Cc2c(-c3ccccc3)n(CC(=O)c3ccc(-c4ccccc4)cc3)c3ccccc23)C(=O)N1`, the “growth inhibition (GI)” value in the assay on Bacillus subtilis [1], with Pseudomonas aeruginosa [2], in the assay on Staphylococcus aureus [4], with Proteus vulgaris [6], with Saccharomyces cerevisiae [7] and with Saccharomyces cerevisiae [8] was “Active” in each case. Also, the “growth inhibition (GI)” value in the assay with Proteus vulgaris [11], in the assay on Escherichia coli [12], in the assay on Bacillus subtilis [13], in the assay with Saccharomyces cerevisiae [14], in the assay on Bacillus subtilis [15] and with Staphylococcus aureus [17] was “Active” throughout. In addition, the “growth inhibition (GI)” value with Escherichia coli [18], in the assay with Staphylococcus aureus [19] and with Escherichia coli [21] was “Active” each time. Further, the “growth inhibition (GI)” value in the assay on Pseudomonas aeruginosa [3], in the assay with Candida albicans [5], with Proteus vulgaris [9], in the assay with Pseudomonas aeruginosa [10], in the assay on Candida albicans [16] and in the assay on Candida albicans [20] was “inactive” each time.
In the case of `CCCCn1c(-c2ccccc2)c(C=C2C(=O)NC(=O)NC2=O)c2ccccc21`, the “growth inhibition (GI)” value with Bacillus subtilis [1], in the assay on Staphylococcus aureus [4], in the assay with Candida albicans [5], with Proteus vulgaris [6], in the assay with Proteus vulgaris [9] and in the assay on Proteus vulgaris [11] was “Active” in each case. Moreover, the “growth inhibition (GI)” value in the assay with Escherichia coli [12], in the assay on Bacillus subtilis [13], in the assay with Bacillus subtilis [15], in the assay on Candida albicans [16], in the assay on Staphylococcus aureus [17] and in the assay with Escherichia coli [18] was “Active” in each case. The “growth inhibition (GI)” value in the assay on Staphylococcus aureus [19], with Candida albicans [20] and with Escherichia coli [21] was “Active” throughout. For the same compound, the “growth inhibition (GI)” value with Pseudomonas aeruginosa [2], in the assay with Pseudomonas aeruginosa [3], in the assay with Saccharomyces cerevisiae [7], with Saccharomyces cerevisiae [8], with Pseudomonas aeruginosa [10] and in the assay on Saccharomyces cerevisiae [14] was “inactive” throughout.
